The values below come from US20060198832A1, “Peptide drugs for chronic lymphocytic leukemia (CLL) and other cancers” (priority 2004, published 2006).

In one data set the test system is CLL cells. Put plainly: CLL cell viability, cell permeable peptides added directly to culture without electroporation. The format is cell-based, human. To be noted: for change in viability: TJK197 patient CLL cells, FIG. 4. An excerpt:
Peripheral blood mononuclear cells (PBMC) from patients with chronic lymphocytic leukemia (CLL) were obtained from the CLL Research Consortium (CRC) tissue bank. Briefly, heparinized peripheral blood was obtained from patients diagnosed with B-CLL according to standard criteria (Chenson et al., Blood 87:4990-4997 (1996)). Lymphocytes were isolated by Ficoll density-gradient centrifugation and verified by immunofluorescence flow cytometry to be composed of greater than 95% CD5/CD19/CD23 triple positive B cells. CLL samples were incubated at 1×10^6 cells/ml in RPMI media supplemented with 10% FBS (fetal bovine serum) and 1 mM L-glutamine and antibiotics (penicillin/streptomycin) at 37° C. with 5% CO2 for 24 hours. CLL cells were electroporated with a dimethyl sulfoxide (DMSO) control or peptides essentially as described in Eksioglu-Demiralp et al., J. Immunol. Methods 275:41-56 (2003), and Schimmer et al., Cancer Res. 63:1242-1248 (2003).
For evaluation of apoptosis, at least 5×10^5 cells were recovered by centrifugation and double-stained with Annexin V-FITC, an early marker of apoptosis, and propidium iodide (PI), a nucleic acid-binding vital dye, followed by flow-cytometric analysis using the FL-1 and FL-3 channels of a Becton Dickinson flow cytometer (FACSort; San Jose, Calif.).
The wild type and modified BAD peptides fused to poly-arginine cell penetration sequences shown in Table 5 were synthesized by standard solid phase synthesis. CLL cell viability assays were performed as described above except that cell permeable peptides SEQ ID NOS: 28, 6 and 29 and the control, non-permeable peptide SEQ ID NO: 3 (see Table 5) were added directed to CLL cells in culture without electroporation.

In data set [1] the test system is Bcl-2. Briefly: BD Cytometric Bead Assay of Bcl-2 levels in peptide treated CLL cells. The format is cell-based, human. To be noted: TJK160 and TJK357 CLL patient cells, incubated with peptide for four hours, FIG. 5. The method, then: TJK160 and TJK357 CLL patient cells were treated with the modified BAD peptide SEQ ID NO: 6 or with control peptides SEQ ID NO: 29 and SEQ ID NO: 30 essentially as described above. To determine the levels of Bcl-2 in each of the peptide treated CLL samples, a BD™ Cytometric Bead Assay (BD CBA; BD Biosciences) was used to quantitatively measure active caspase-3, cleaved PARP and Bcl-2 levels in a single sample. In this assay, soluble analytes are measured using amplified fluorescence detection and flow cytometry, with each bead in a CBA providing a capture surface for a specific protein and being analogous to an individually coated well in an ELISA plate. A single bead population with a distinct fluorescence intensity is coated with a capture antibody specific for active caspase-3 protein, cleaved PARP protein or Bcl-2 protein and subsequently resolved in the FL3 channel of a BD FACSTM brand flow cytometer. The capture bead, PE-conjugated detection antibody, and cell lysate standard or test samples are incubated together to form sandwich complexes and analyzed using BD CBA Analysis Software. Cells were lysed in 1× CBA Cell Lysis Buffer supplemented with Protease Inhibitor Cocktail according to the manufacturer's protocol. Human active caspase-3, cleaved PARP and Bcl-2 lysate standards were reconstituted in deionized water at room temperature for 15 minutes. The standard was diluted by serial dilutions using assay diluent according to the manufacturer's protocol. Capture beads were vortexed before use, and 50 μl of capture beads were transferred to each assay tube. Standard dilutions and test samples were added to the appropriate sample tubes (50 μl/tube) and incubated at room temperature for one hour. […] After addition of 300 μl of Wash Buffer, samples were analyzed by the BD FACScan or BD FACSCalibur. Samples were analyzed by the use of BD CellQuest Software, and data were acquired by the use of the BD CBA Software. […]

For data set [2], the system named is chronic lymphocytic leukemia (CLL) cells. Briefly: viability/apoptosis of CLL cells electroporated with peptides (Annexin V-FITC/PI flow cytometry). It is filed as cell-based, human. The text has this:
Peripheral blood mononuclear cells (PBMC) from patients with chronic lymphocytic leukemia (CLL) were obtained from the CLL Research Consortium (CRC) tissue bank. Briefly, heparinized peripheral blood was obtained from patients diagnosed with B-CLL according to standard criteria (Chenson et al., Blood 87:4990-4997 (1996)). Lymphocytes were isolated by Ficoll density-gradient centrifugation and verified by immunofluorescence flow cytometry to be composed of greater than 95% CD5/CD19/CD23 triple positive B cells. […] CLL cells were electroporated with a dimethyl sulfoxide (DMSO) control or peptides essentially as described in […] et al., J. Immunol. Methods 275:41-56 (2003), and […] et al., Cancer Res. 63:1242-1248 (2003). For evaluation of apoptosis, at least 5×10^5 cells were recovered by centrifugation and double-stained with Annexin V-FITC, an early marker of apoptosis, and propidium iodide (PI), a nucleic acid-binding vital dye, followed by flow-cytometric analysis using the FL-1 and FL-3 channels of a Becton Dickinson flow cytometer (FACSort; San Jose, Calif.).
A general note: In flow cytometry, cells or beads pass a laser one at a time.

A further data set deals with 697-neo cells. Briefly: cell viability assay in 697-neo cells. To be noted: low Bcl-2, FIG. 6. It is filed as cell-based. The method, then:
(§1) The peptides were tested in cell viability assays essentially as described above in Examples I and II. Experiments were carried out in 697-neo and 697-Bcl-2 cells. 697 cells are from a cell line of preB leukemic cells. 697-Bcl-2 cells have been engineered to express high levels of Bcl-2. AML-349 and AML-728 are myeloblasts (verified by FACS analysis via CD34-positivity) that were isolated from respective patients with acute myelogenous leukemia (AML).

Data set [3] relates to acute myelogenous leukemia (AML) cells. Briefly: cell viability/apoptosis in patient AML cells. It is filed as cell-based, human. On the procedure:
as §1

In a further data set the target is Bcl-2 family Bcl-2/x1 (Homo sapiens, UniProt P10415). Briefly: binding of penetratin-linked peptides to Bcl-2 (method not described).
Data set [4] deals with T1, Bcl-2 (UniProt P10415 1-239, limits assumed).
T1 construct: also called Bcl-2 protein
Put plainly: inferred from cell viability of 697-neo against 697-Bcl2 cells.

Where a SMILES comes first, the peptide text is derived from it. Bridges are numbered along the chain shown (N, C = ends). Roman numbers before positions name the chains, in order. Where no end group is shown, it is not given here. [ ]: non-standard residue; d: D form. Ahx = NCCCCCC(=O)O

T1 sequence (P10415 whole entry): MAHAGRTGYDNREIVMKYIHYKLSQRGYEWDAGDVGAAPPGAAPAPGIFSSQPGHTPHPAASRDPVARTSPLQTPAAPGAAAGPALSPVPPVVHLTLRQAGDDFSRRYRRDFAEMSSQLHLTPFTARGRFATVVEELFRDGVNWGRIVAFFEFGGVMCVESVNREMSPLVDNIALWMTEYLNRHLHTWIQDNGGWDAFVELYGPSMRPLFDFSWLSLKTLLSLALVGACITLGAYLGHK
Chain of Bcl-2 family Bcl-2/x1 (P10415 1-205): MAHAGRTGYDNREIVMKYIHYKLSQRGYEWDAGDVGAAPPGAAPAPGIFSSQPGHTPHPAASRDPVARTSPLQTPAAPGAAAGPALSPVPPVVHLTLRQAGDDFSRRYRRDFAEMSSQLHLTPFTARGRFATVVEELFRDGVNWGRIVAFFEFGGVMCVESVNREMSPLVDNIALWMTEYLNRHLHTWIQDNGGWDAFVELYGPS

As for `CSCC[C@H](NC(=O)[C@H](CCCNC(=N)N)NC(=O)[C@H](CCCNC(=N)N)NC(=O)[C@H](CC(C)C)NC(=O)[C@H](CCC(=O)O)NC(=O)[C@H](CCCNC(=N)N)NC(=O)CNC(=O)[C@H](Cc1ccc(O)cc1)NC(=O)[C@H](CCCNC(=N)N)NC(=O)[C@H](CCC(N)=O)NC(=O)[C@H](C)NC(=O)[C@H](C)NC(=O)[C@H](Cc1c[nH]c2ccccc12)NC(=O)[C@H](CC(C)C)NC(=O)[C@@H](N)CC(N)=O)C(=O)N[C@@H](C)C(=O)N[C@@H](CC(=O)O)C(=O)N[C@@H](CCC(=O)O)C(=O)N[C@@H](Cc1ccccc1)C(=O)N[C@H](C(=O)N[C@@H](CC(=O)O)C(=O)N[C@@H](C)C(=O)N[C@@H](Cc1ccccc1)C(=O)N[C@@H](CCCCN)C(=O)N[C@@H](CCCCN)C(=O)N[C@@H](CS)C(=O)NCCCCCC(=O)N[C@H](CCCNC(=N)N)C(=O)N[C@H](CCCNC(=N)N)C(=O)N[C@H](CCCNC(=N)N)C(=O)N[C@H](CCCNC(=N)N)C(=O)N[C@H](CCCNC(=N)N)C(=O)N[C@H](CCCNC(=N)N)C(=O)N[C@H](CCCNC(=N)N)C(=O)N[C@H](CCCNC(=N)N)C(=O)O)C(C)C` [SEQ ID NO: 6] (H-NLWAAQRYGRELRRMADEFVDAFKKC[Ahx][dR][dR][dR][dR][dR][dR][dR][dR]-OH; N-terminus and C-terminus assumed), the “cell viability, dose response” value in the data set with CLL cells (patient TJK379 CLL cells, FIG. 3) is on record as “dose-dependent decrease in cell viability”. In addition, in the data set on CLL cells (patient TJK379 CLL cells, as little as 15 μM peptide), the percentage cell viability result was “dramatically reduced”. Also, the “intracellular levels of Bcl-2” value with Bcl-2 [1] is listed as “significant reduction in intracellular levels of Bcl-2”.

For the molecule “AVPIAQK-Ahx-(DArg)8 (AVPIAQK[Ahx][dR][dR][dR][dR][dR][dR][dR][dR]) [SEQ ID NO: 30, control peptide with poly(DArg)]”, the “intracellular levels of Bcl-2” value in the data set on Bcl-2 [1] was “not observed”.

As to “NLWAAQRYGREARRMAAEFVDAFKK [SEQ ID NO: 4]”, the cell viability (Induction of Apoptosis in CLL Cells), patient sample JCB 178 in data set [2] (CLL patient sample JCB 178, peptide electroporated) amounted to 38%. Moreover, the cell viability (Induction of Apoptosis in CLL Cells), patient sample MA G15 in data set [2] (CLL patient sample MA G15, peptide electroporated) worked out at 20%. In addition, the cell viability (Induction of Apoptosis in CLL Cells), patient sample TJK 328 in data set [2] (CLL patient sample TJK 328, peptide electroporated) was determined as 26%. Also, in data set [2] (CLL patient sample TJK 340 #1, peptide electroporated), the cell viability (Induction of Apoptosis in CLL Cells), patient sample TJK 340 #1 was 46%. This molecule also came in with a cell viability (Induction of Apoptosis in CLL Cells), patient sample TJK 340 #2 in data set [2] (CLL patient sample TJK 340 #2, peptide electroporated) of 45%. Also, in data set [2] (CLL patient sample TJK 375, peptide electroporated), the cell viability (Induction of Apoptosis in CLL Cells), patient sample TJK 375 was found to be 48%. This molecule also gave a cell viability (Induction of Apoptosis in CLL Cells), Av. in data set [2] (average of the five preceding patient sample columns, peptide electroporated) of 41%. The “cell viability of CLL cells” value in data set [2] (electroporated peptide, FIG. 2) is recorded as “minimal or insignificant changes in viability”. Also, the “cell viability in all the patient CLL samples” value in data set [2] (electroporated peptide, summary of Table 4) is given as “minimally effected”.

Regarding “NLWAAQRYGREARRMAAEFVDAFKKC-Ahx-(DArg)8 (NLWAAQRYGREARRMAAEFVDAFKKC[Ahx][dR][dR][dR][dR][dR][dR][dR][dR]) [SEQ ID NO: 29, control BAD peptide with poly(DArg)]”, the change in viability result in the data set on CLL cells is “no change in viability”. Also, the “intracellular levels of Bcl-2” value in the data set on Bcl-2 [1] was “not observed”.

Take “NLWAAQRYGRELRRMSDEFVDSFKKC-Ahx*-(DArg)8 (NLWAAQRYGRELRRMSDEFVDSFKKC[Ahx][dR][dR][dR][dR][dR][dR][dR][dR]) [SEQ ID NO: 28]”: in the data set with CLL cells, the change in viability entry is given as “no change in viability”. For the same molecule, in the data set on CLL cells (patient TJK379 CLL cells, even at 50 μM), the “effect on cell viability” value is “negligible effect”. Moreover, in the data set with CLL cells (poly-arginine fused peptide, CLL cells), the “cell viability of cancer cells (concluding statement)” value is reported as “dramatically reduce cell viability”.

Take “acetyl-NLWAAQRYGRELRRMADEFVDAFKKC-CRQIKIWFQNRRMKWKK-amide [2336] (D-residues; cyclised or stapled) [compound 2336]”: in the data set on 697-neo cells, the “activity in reducing cell viability” value is “significantly less active than the 2335 peptide”. Further, the “induction of apoptosis / killing” value in data set [3] (AML cells of patient AML-349, FIG. 9) is “showed less killing”. Further, the induction of apoptosis result in data set [3] (AML cells of patient AML-728, FIG. 8) is given as “does not”. In addition, the “binding to Bcl-2” value in the data set with Bcl-2 family Bcl-2/x1 is given as “does not bind Bcl-2 family Bcl-2/x1”.

B1: 2335 peptide, acetyl-NLWAAQRYGRELRRMADEFVDAFKKC-CRQIKIWFQNRRMKWKK-amide (SEQ ID NO: 31) (peptide)
peptide 1: Ac-NLWAAQRYGRELRRMADEFVDAFKKC
peptide 2: CRQIKIWFQNRRMKWKK-NH2
modifications: disulfide I:26-II:1
notes: C-C is a disulfide between two peptides, so it is written here as two chains; also called Bad S/A peptide disulfide linked to penetratin; BAD-BH3 peptide
For B1, the binding result with Bcl-2 [4] is “binds”.
